# Data reported in patent US7713994B2 (Wyeth LLC, priority 2005, dated 2010).
# Target: T1, cyclin D1/cdk 4 enzyme (Homo sapiens, UniProt P11802)
# T1 construct: made in house; host or cells: Sf9 insect cells, recombinant baculovirus
# Test: CDK4 ELISA kinase assay (phospho-Rb ser 795 detection)
# Type: biochemical
# Conditions: In Vitro Enzyme Assay, cyclin D1/cdk 4, read-out: CDK4 IC50
# How it was run: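 GST-Rb C-terminal fragment coated on plates; partially purified Sf9-expressed cyclin D1/CDK4, cyclin E/CDK2 or cyclin B/CDK1 with 200 μM ATP, pH 7.5 HEPES/MgCl2 buffer, 1 h at 30 °C; screen compound final 10 μg/ml. Phospho-Rb Ser795 detected by antibody ELISA (TMB, A450); % of control, IC50 from background-subtracted inhibition curves.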
# T1 sequence (P11802 whole entry, species assumed): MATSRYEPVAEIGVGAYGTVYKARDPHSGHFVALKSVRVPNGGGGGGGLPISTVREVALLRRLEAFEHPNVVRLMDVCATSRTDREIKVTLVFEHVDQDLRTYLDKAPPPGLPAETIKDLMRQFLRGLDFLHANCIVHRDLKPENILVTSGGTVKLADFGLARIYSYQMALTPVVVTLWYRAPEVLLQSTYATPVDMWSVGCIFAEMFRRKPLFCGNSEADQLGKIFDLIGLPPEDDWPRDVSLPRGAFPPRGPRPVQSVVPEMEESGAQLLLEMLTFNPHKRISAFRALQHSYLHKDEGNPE
# T1 sequence (P24385 whole entry partner, species assumed): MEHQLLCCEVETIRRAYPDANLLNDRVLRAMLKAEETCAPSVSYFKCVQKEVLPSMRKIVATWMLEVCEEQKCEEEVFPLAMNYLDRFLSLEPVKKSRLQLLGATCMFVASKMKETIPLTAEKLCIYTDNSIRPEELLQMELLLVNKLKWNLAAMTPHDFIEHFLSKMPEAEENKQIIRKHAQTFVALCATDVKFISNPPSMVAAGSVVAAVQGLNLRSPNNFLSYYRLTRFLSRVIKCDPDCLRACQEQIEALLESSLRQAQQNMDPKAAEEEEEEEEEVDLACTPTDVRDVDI
row,IC50,Compound
1,20.9 µM,"COc1cccc(-c2ccc3c(c2)C(=CNc2ccc(CC#N)cc2)C(=O)NC3=O)c1 [Example 702, (4-{[6-(3-Methoxy-phenyl)-1,3-dioxo-2,3-dihydro-1H-isoquinolin-4-ylidenemethyl]-amino}-phenyl)-acetonitrile]"
2,18.5 µM,"COc1ccccc1-c1ccc2c(c1)C(=CNc1ccc(CC#N)cc1)C(=O)NC2=O [Example 703, (4-{[6-(2-Methoxy-phenyl)-1,3-dioxo-2,3-dihydro-1H-isoquinolin-4-ylidenemethyl]-amino}-phenyl)-acetonitrile]"
3,12.6 µM,"N#CCc1ccc(NC=C2C(=O)NC(=O)c3ccc(-c4cccc(F)c4)cc32)cc1 [Example 705, (4-{[6-(3-Fluoro-phenyl)-1,3-dioxo-2,3-dihydro-1H-isoquinolin-4-ylidenemethyl]-amino}-phenyl)-acetonitrile]"
4,10 µM,"N#CCc1ccc(NC=C2C(=O)NC(=O)c3ccc(-c4cccc(C(=O)O)c4)cc32)cc1 [Example 708, 3-{4-[(4-Cyanomethyl-phenylamino)-methylene]-1,3-dioxo-1,2,3,4-tetrahydro-isoquinolin-6-yl}-benzoic acid]"
5,7.9 µM,"N#CCc1ccc(NC=C2C(=O)NC(=O)c3ccc(-c4ccc(Cl)cc4)cc32)cc1 [Example 712, (4-{[6-(4-Chloro-phenyl)-1,3-dioxo-2,3-dihydro-1H-isoquinolin-4-ylidenemethyl]-amino}-phenyl)-acetonitrile]"
6,12.8 µM,"N#CCc1ccc(NC=C2C(=O)NC(=O)c3ccc(-c4cccc(Cl)c4)cc32)cc1 [Example 713, (4-{[6-(3-Chloro-phenyl)-1,3-dioxo-2,3-dihydro-1H-isoquinolin-4-ylidenemethyl]-amino}-phenyl)-acetonitrile]"
7,13.3 µM,"Cc1ccccc1-c1ccc2c(c1)C(=CNc1ccc(CC#N)cc1)C(=O)NC2=O [Example 717, {4-[(1,3-Dioxo-6-o-tolyl-2,3-dihydro-1H-isoquinolin-4-ylidenemethyl)-amino]-phenyl}-acetonitrile]"
8,8.2 µM,"N#CCc1ccc(NC=C2C(=O)NC(=O)c3ccc(-c4ccc(C#N)cc4)cc32)cc1 [Example 718, 4-{4-[(4-Cyanomethyl-phenylamino)-methylene]-1,3-dioxo-1,2,3,4-tetrahydro-isoquinolin-6-yl}-benzonitrile]"
9,27.5 µM,"N#CCc1ccc(NC=C2C(=O)NC(=O)c3ccc(-c4cccc(C#N)c4)cc32)cc1 [Example 719, 3-{4-[(4-Cyanomethyl-phenylamino)-methylene]-1,3-dioxo-1,2,3,4-tetrahydro-isoquinolin-6-yl}-benzonitrile]"
10,25.9 µM,"N#CCc1ccc(NC=C2C(=O)NC(=O)c3ccc(-c4cccc(-c5ccccc5)c4)cc32)cc1 [Example 721, {4-[(6-Biphenyl-3-yl-1,3-dioxo-2,3-dihydro-1H-isoquinolin-4-ylidenemethyl)-amino]-phenyl}-acetonitrile]"
11,25.3 µM,"CC(C)c1ccc(-c2ccc3c(c2)C(=CNc2ccc(CC#N)cc2)C(=O)NC3=O)cc1 [Example 722, (4-{[6-(4-Isopropyl-phenyl)-1,3-dioxo-2,3-dihydro-1H-isoquinolin-4-ylidenemethyl]-amino}-phenyl)-acetonitrile]"
12,12.2 µM,"CSc1ccc(-c2ccc3c(c2)C(=CNc2ccc(CC#N)cc2)C(=O)NC3=O)cc1 [Example 723, (4-{[6-(4-Methylsulfanyl-phenyl)-1,3-dioxo-2,3-dihydro-1H-isoquinolin-4-ylidenemethyl]-amino}-phenyl)-acetonitrile]"

# The remaining lines, values behind:
row,Compound,IC50
1,"Cc1cccc(-c2ccc3c(c2)C(=CNc2ccc(N4CCN(C)CC4)cc2)C(=O)NC3=O)c1 [Example 693, 4-{[4-(4-Methyl-piperazin-1-yl)-phenylamino]-methylene}-6-m-tolyl-4H-isoquinoline-1,3-dione]",25.7 µM
2,"Cc1ccccc1-c1ccc2c(c1)C(=CNc1ccc(N3CCN(C)CC3)cc1)C(=O)NC2=O [Example 694, 4-{[4-(4-Methyl-piperazin-1-yl)-phenylamino]-methylene}-6-o-tolyl-4H-isoquinoline-1,3-dione]",32.3 µM
3,"CN1CCN(c2ccc(NC=C3C(=O)NC(=O)c4ccc(-c5cccc(C#N)c5)cc43)cc2)CC1 [Example 695, 3-(4-{[4-(4-Methyl-piperazin-1-yl)-phenylamino]-methylene}-1,3-dioxo-1,2,3,4-tetrahydro-isoquinolin-6-yl)-benzonitrile]",14.3 µM
4,"CN1CCN(c2ccc(NC=C3C(=O)NC(=O)c4ccc(-c5ccc(-c6ccccc6)cc5)cc43)cc2)CC1 [Example 696, 6-Biphenyl-4-yl-4-{[4-(4-methyl-piperazin-1-yl)-phenylamino]-methylene}-4H-isoquinoline-1,3-dione]",27.3 µM
5,"CN1CCN(c2ccc(NC=C3C(=O)NC(=O)c4ccc(-c5cccc(-c6ccccc6)c5)cc43)cc2)CC1 [Example 697, 6-Biphenyl-3-yl-4-{[4-(4-methyl-piperazin-1-yl)-phenylamino]-methylene}-4H-isoquinoline-1,3-dione]",48.6 µM
6,"CSc1ccc(-c2ccc3c(c2)C(=CNc2ccc(N4CCN(C)CC4)cc2)C(=O)NC3=O)cc1 [Example 700, 4-{[4-(4-Methyl-piperazin-1-yl)-phenylamino]-methylene}-6-(4-methylsulfanyl-phenyl)-4H-isoquinoline-1,3-dione]",45 µM
7,"N#CCc1ccc(NC=C2C(=O)NC(=O)c3ccc(-c4ccc(C(=O)O)cc4)cc32)cc1 [Example 707, 4-{4-[(4-Cyanomethyl-phenylamino)-methylene]-1,3-dioxo-1,2,3,4-tetrahydro-isoquinolin-6-yl}-benzoic acid]",3.8 µM
8,"N#CCc1ccc(NC=C2C(=O)NC(=O)c3ccc(-c4ccc(C(F)(F)F)cc4)cc32)cc1 [Example 709, (4-{[1,3-Dioxo-6-(4-trifluoromethyl-phenyl)-2,3-dihydro-1H-isoquinolin-4-ylidenemethyl]-amino}-phenyl)-acetonitrile]",38.6 µM
9,"CC(=O)c1ccc(-c2ccc3c(c2)C(=CNc2ccc(CC#N)cc2)C(=O)NC3=O)cc1 [Example 710, (4-{[6-(4-Acetyl-phenyl)-1,3-dioxo-2,3-dihydro-1H-isoquinolin-4-ylidenemethyl]-amino}-phenyl)-acetonitrile]",28 µM
10,"N#CCc1ccc(NC=C2C(=O)NC(=O)c3ccc(-c4ccc(-c5ccccc5)cc4)cc32)cc1 [Example 720, {4-[(6-Biphenyl-4-yl-1,3-dioxo-2,3-dihydro-1H-isoquinolin-4-ylidenemethyl)-amino]-phenyl}-acetonitrile]",21.7 µM
11,"CN1CCN(c2ccc(NC=C3C(=O)NC(=O)c4ccc(C=Cc5ccc(Cl)cc5)cc43)cc2)CC1 [Example 726, 6-[2-(4-Chloro-phenyl)-vinyl]-4-{[4-(4-methyl-piperazin-1-yl)-phenylamino]-methylene}-4H-isoquinoline-1,3-dione]",16.9 µM
12,"CN1CCN(c2ccc(NC=C3C(=O)NC(=O)c4ccc(C=Cc5ccc(C(=O)O)cc5)cc43)cc2)CC1 [Example 727, 4-[2-(4-{[4-(4-Methyl-piperazin-1-yl)-phenylamino]-methylene}-1,3-dioxo-1,2,3,4-tetrahydro-isoquinolin-6-yl)-vinyl]-benzoic acid]",20.4 µM
13,"COc1ccc(C=Cc2ccc3c(c2)C(=CNc2ccc(N4CCN(C)CC4)cc2)C(=O)NC3=O)cc1 [Example 732, 6-[2-(4-Methoxy-phenyl)-vinyl]-4-{[4-(4-methyl-piperazin-1-yl)-phenylamino]-methylene}-4H-isoquinoline-1,3-dione]",25.8 µM
